Tested on: osteoclast pregenitor cells
Test: Inhibition rates of furan derivatives versus osteoclast formation (TRAP staining)
Format: cell-based, mice
Details: TRAP-positive multinucleated cells, untreated control set as 100%
Protocol: First, bone marrow cells were isolated, as follow. After sacrificing 7-9 week female mice by cervical dislocation, femur and tibia were excised aseptically while removing attached soft tissues. After cutting both ends of long bones, 1 ml of an enzyme solution, containing 0.1% collagenase (Gibco), 0.05% trypsin and 0.5 mM EDTA (Gibco), was injected to the bone marrow cavity at one end using a syringe with a 26-guage needle, and bone marrow was then collected. After shaking the recovered bone marrow for 30 min, bone marrow cells were collected, and cultured in α-minimum essential medium (α-MEM) supplemented with 10% FBS for 24 hrs. Then, non-adherent cells were collected, which are osteoclast pregenitors, aliquotted onto culture plates at a density of 2×10^5 cells per well, and cultured for 8 days in α-MEM supplemented with 20 ng/ml of macrophage-colony stimulating factor (M-CSF, Peprotech, USA) and 30 ng/ml RANKL (Peprotech, USA). During the 8 days of culturing, the cells were treated with the Compound 1. Thereafter, osteoclast formation was investigated by fixing the cultured cells and then carrying out TRAP staining, as described in the following Experimental Example 2.2. In addition, resorption activity of osteoclasts was investigated by measuring the absorption area after removing osteoclasts in cultures in calcium phosphate-coated plates, as described in Experimental Example 2.3, below.
After cell culture, the adherent cells were washed with PBS, and TRAP staining was performed, as follows. After being fixed with citrate-acetate-formaldehyde for 5 min, the cells were incubated for 1 hr in acetate buffer (prewarmed at 37° C., pH 5.0) containing naphthol AS-BI phosphate, fast Garnet GBC and 7 mM tartrate buffer (pH 5.0). TRAP-positive multinucleated cells having 3 or more nuclei were considered as osteoclasts.
Osteoclast pregenitor cells were isolated, and their differentiation to mature osteoclasts was induced, according to the same method as in the Experimental Example 2-1, while treated with each of the furan derivatives of the present invention. According to the same method as in the Experimental Example 2-2, TRAP staining performed, and TRAP-positive multinucleated cells were counted. An inhibition rate of each furan derivative against osteoclast formation was expressed as percentage, wherein the number of stained cells in a control not treated the furan derivative was arbitrarily set as 100% (Tables 14 to 16).

O=C(O)c1ccc(COc2ccc(Br)cc2)o1 [Compound 103]
Inhibition rate against osteoclast formation, % (0.1 μM): 0% | Inhibition rate against osteoclast formation, % (1 μM): 0% | Inhibition rate against osteoclast formation, % (10 μM): 2.77%

O=C(O)c1ccc(COc2ccccc2Cl)o1 [Compound 107]
Inhibition rate against osteoclast formation, % (0.1 μM): 0% | Inhibition rate against osteoclast formation, % (1 μM): 0% | Inhibition rate against osteoclast formation, % (10 μM): 32%

O=C(O)c1ccc(COc2ccccc2Br)o1 [Compound 108]
Inhibition rate against osteoclast formation, % (0.1 μM): 0% | Inhibition rate against osteoclast formation, % (1 μM): 0% | Inhibition rate against osteoclast formation, % (10 μM): 14.72%

O=C(O)c1ccc(COc2cc(Cl)ccc2Cl)o1 [Compound 109]
Inhibition rate against osteoclast formation, % (0.1 μM): 0% | Inhibition rate against osteoclast formation, % (1 μM): 0% | Inhibition rate against osteoclast formation, % (10 μM): 3.25%

O=C(O)c1ccc(COc2cccc(Cl)c2)o1 [Compound 112]
Inhibition rate against osteoclast formation, % (0.1 μM): 0% | Inhibition rate against osteoclast formation, % (1 μM): 0% | Inhibition rate against osteoclast formation, % (10 μM): 7.79%

CC(C)c1ccc(OCc2ccc(C(=O)O)o2)cc1 [Compound 114]
Inhibition rate against osteoclast formation, % (0.1 μM): 0% | Inhibition rate against osteoclast formation, % (1 μM): 0% | Inhibition rate against osteoclast formation, % (10 μM): 4.2%

O=C(O)c1ccc(COc2cccc3ccccc23)o1 [Compound 117]
Inhibition rate against osteoclast formation, % (0.1 μM): 0% | Inhibition rate against osteoclast formation, % (1 μM): 0% | Inhibition rate against osteoclast formation, % (10 μM): 5.86%

Cc1cc(OCc2ccc(C(=O)O)o2)ccc1Cl [Compound 119]
Inhibition rate against osteoclast formation, % (0.1 μM): 0% | Inhibition rate against osteoclast formation, % (1 μM): 0% | Inhibition rate against osteoclast formation, % (10 μM): 37.02%

O=C(O)c1ccc(CSCc2ccccc2)o1 [Compound 120]
Inhibition rate against osteoclast formation, % (0.1 μM): 0% | Inhibition rate against osteoclast formation, % (1 μM): 0% | Inhibition rate against osteoclast formation, % (10 μM): 27.99%

CCC(C)NC(=O)c1ccc(COc2ccc(I)cc2)o1 (stereo not drawn) [Compound 121]
Inhibition rate against osteoclast formation, % (0.1 μM): 0% | Inhibition rate against osteoclast formation, % (1 μM): 0% | Inhibition rate against osteoclast formation, % (10 μM): 7.12%

CCN(CC)C(=O)c1ccc(COc2ccc(Cl)c(C)c2)o1 [Compound 123]
Inhibition rate against osteoclast formation, % (0.1 μM): 0% | Inhibition rate against osteoclast formation, % (1 μM): 6.9% | Inhibition rate against osteoclast formation, % (10 μM): 100%

CC1CCN(C(=O)c2ccc(COc3cc(Cl)ccc3Cl)o2)CC1 [Compound 124]
Inhibition rate against osteoclast formation, % (0.1 μM): 0% | Inhibition rate against osteoclast formation, % (1 μM): 0% | Inhibition rate against osteoclast formation, % (10 μM): 7.62%

CC(C)(C)NC(=O)c1ccc(COCC(F)(F)F)o1 [Compound 127]
Inhibition rate against osteoclast formation, % (0.1 μM): 0% | Inhibition rate against osteoclast formation, % (1 μM): 0% | Inhibition rate against osteoclast formation, % (10 μM): 13.82%

O=C(c1ccc(COc2ccccc2Br)o1)N1CCCCCC1 [Compound 128]
Inhibition rate against osteoclast formation, % (0.1 μM): 6.54% | Inhibition rate against osteoclast formation, % (1 μM): 0% | Inhibition rate against osteoclast formation, % (10 μM): 97.65%

CC(C)(C)NC(=O)c1ccc(COc2ccccc2Br)o1 [Compound 129]
Inhibition rate against osteoclast formation, % (0.1 μM): 0% | Inhibition rate against osteoclast formation, % (1 μM): 0% | Inhibition rate against osteoclast formation, % (10 μM): 2.2%

CC(C)NC(=O)c1ccc(CNc2cc(Cl)ccc2Cl)o1 [Compound 130]
Inhibition rate against osteoclast formation, % (0.1 μM): 0% | Inhibition rate against osteoclast formation, % (1 μM): 0% | Inhibition rate against osteoclast formation, % (10 μM): 7.84%

Cc1cc(OCc2ccc(C(=O)N3CCOCC3)o2)ccc1Cl [Compound 132]
Inhibition rate against osteoclast formation, % (0.1 μM): 0% | Inhibition rate against osteoclast formation, % (1 μM): 0% | Inhibition rate against osteoclast formation, % (10 μM): 62.30%

O=C(c1ccc(COc2cc(Cl)ccc2Cl)o1)N1CCCCCC1 [Compound 133]
Inhibition rate against osteoclast formation, % (0.1 μM): 0% | Inhibition rate against osteoclast formation, % (1 μM): 0% | Inhibition rate against osteoclast formation, % (10 μM): 0.5%

CC(C)(C)c1ccc(OCc2ccc(C(=O)NC3CCCCC3)o2)cc1 [Compound 134]
Inhibition rate against osteoclast formation, % (0.1 μM): 0% | Inhibition rate against osteoclast formation, % (1 μM): 0% | Inhibition rate against osteoclast formation, % (10 μM): 21.42%

CC(C)(C)c1ccc(OCc2ccc(C(=O)Nc3ccccc3)o2)cc1 [Compound 136]
Inhibition rate against osteoclast formation, % (0.1 μM): 0% | Inhibition rate against osteoclast formation, % (1 μM): 0% | Inhibition rate against osteoclast formation, % (10 μM): 2.49%

O=C(Nc1ccccc1)c1ccc(COc2ccc3ccccc3c2)o1 [Compound 137]
Inhibition rate against osteoclast formation, % (0.1 μM): 0% | Inhibition rate against osteoclast formation, % (1 μM): 0% | Inhibition rate against osteoclast formation, % (10 μM): 38.3%

O=C(Nc1cccc(Br)c1)c1ccc(COc2ccc(F)cc2)o1 [Compound 140]
Inhibition rate against osteoclast formation, % (0.1 μM): 0% | Inhibition rate against osteoclast formation, % (1 μM): 0% | Inhibition rate against osteoclast formation, % (10 μM): 11.93%

O=C(Nc1ccc(F)cc1)c1ccc(COc2cccc(Cl)c2)o1 [Compound 141]
Inhibition rate against osteoclast formation, % (0.1 μM): 0% | Inhibition rate against osteoclast formation, % (1 μM): 0% | Inhibition rate against osteoclast formation, % (10 μM): 13.01%

COc1ccc(NC(=O)c2ccc(COc3ccccc3Cl)o2)cc1Cl [Compound 142]
Inhibition rate against osteoclast formation, % (0.1 μM): 0% | Inhibition rate against osteoclast formation, % (1 μM): 0% | Inhibition rate against osteoclast formation, % (10 μM): 32.17%

O=C(Nc1ccc(F)c(F)c1)c1ccc(COc2ccc(I)cc2)o1 [Compound 143]
Inhibition rate against osteoclast formation, % (0.1 μM): 0% | Inhibition rate against osteoclast formation, % (1 μM): 0% | Inhibition rate against osteoclast formation, % (10 μM): 10.63%

CCOc1ccccc1NC(=O)c1ccc(COc2ccc(Cl)cc2[N+](=O)[O-])o1 [Compound 144]
Inhibition rate against osteoclast formation, % (0.1 μM): 0% | Inhibition rate against osteoclast formation, % (1 μM): 21.95% | Inhibition rate against osteoclast formation, % (10 μM): 85.25%

COc1ccc(NC(=O)c2ccc(COc3cc(Cl)ccc3Cl)o2)c(OC)c1 [Compound 145]
Inhibition rate against osteoclast formation, % (0.1 μM): 0% | Inhibition rate against osteoclast formation, % (1 μM): 5.98% | Inhibition rate against osteoclast formation, % (10 μM): 83.3%

O=C(Nc1ccc(Br)cc1)c1ccc(COc2ccc(I)cc2)o1 [Compound 146]
Inhibition rate against osteoclast formation, % (0.1 μM): 0% | Inhibition rate against osteoclast formation, % (1 μM): 0% | Inhibition rate against osteoclast formation, % (10 μM): 10.03%

Cc1ccc(OCc2ccc(C(=O)Nc3ccc(F)cc3)o2)c([N+](=O)[O-])c1 [Compound 147]
Inhibition rate against osteoclast formation, % (0.1 μM): 6.11% | Inhibition rate against osteoclast formation, % (1 μM): 19.4% | Inhibition rate against osteoclast formation, % (10 μM): 99.72%

NC(=O)c1ccc(NC(=O)c2ccc(COc3cc(Cl)ccc3Cl)o2)cc1 [Compound 148]
Inhibition rate against osteoclast formation, % (0.1 μM): 0% | Inhibition rate against osteoclast formation, % (1 μM): 3.05% | Inhibition rate against osteoclast formation, % (10 μM): 47.55%

COc1ccc(NC(=O)c2ccc(COc3ccc(F)cc3)o2)c([N+](=O)[O-])c1 [Compound 149]
Inhibition rate against osteoclast formation, % (0.1 μM): 0% | Inhibition rate against osteoclast formation, % (1 μM): 10.32% | Inhibition rate against osteoclast formation, % (10 μM): 78.34%

COc1ccc(NC(=O)c2ccc(COc3ccc(Cl)c(C)c3)o2)cc1 [Compound 150]
Inhibition rate against osteoclast formation, % (0.1 μM): 0% | Inhibition rate against osteoclast formation, % (1 μM): 0% | Inhibition rate against osteoclast formation, % (10 μM): 19.12%

O=C(Nc1cc(F)ccc1F)c1ccc(COc2cccc(Cl)c2)o1 [Compound 151]
Inhibition rate against osteoclast formation, % (0.1 μM): 0% | Inhibition rate against osteoclast formation, % (1 μM): 0% | Inhibition rate against osteoclast formation, % (10 μM): 19.8%

COC(=O)c1ccc(C)c(NC(=O)c2ccc(COc3ccc(I)cc3)o2)c1 [Compound 152]
Inhibition rate against osteoclast formation, % (0.1 μM): 5.37% | Inhibition rate against osteoclast formation, % (1 μM): 0.08% | Inhibition rate against osteoclast formation, % (10 μM): 37.56%

Reference: patent US20060004088A1, “Furan derivatives for preventing and curing osteoporosis and pharmaceutical compositions containing the same” (OCT INC., priority 2002, published 2006)
